# Test results as given in patent publication US20230330093A1, “APPLICATION OF NITROGEN-CONTAINING SATURATED HETEROCYCLIC COMPOUND” (SHANGHAI PHARMACEUTICALS HOLDING CO., LTD., priority 2020, published 2023).
# Test system: cynomolgus monkeys
# Assay: 4-week safety study: serum biochemistry
# Type: in vivo
# Method: […] (1) Hematological and coagulation index examination were performed using a Bayer ADVIA2120 (Germany) and a Sysmex CA-1500 (Japan). (2) The serum biochemical examination was assessed using a HITACHI 7080 automated analyzer (Japan) and an Easylyte PLUS electrolyte analyzer (MEDICA, America). (3) The 24-h pooled urine of each animal was collected by a tray under each cage. Urinalysis was carried out using Uritest-300 (China). (4) The 24-h pooled faeces of each monkey were collected by a tray under each cage. Fecal occult blood was detected. (5) ACCESS 2 Chemiluminescence immunoassay was used for myocardial troponin (TropI, non-GLP) test.
compound,measurement,setting,value
COC(=O)NCCCn1nc([C@@H](C)N(C(=O)[C@H]2CNCCO2)C2CC2)c2ccc(C)nc21 [compound of Formula I],BUN,"Female, 20 mg/kg, d0",6.1 ± 1.1 mmol/L
same,CHOL,"Female, 20 mg/kg, d0",3.0 ± 0.5 mmol/L
same,CPK,"Female, 20 mg/kg, d0",158.4 ± 63.5 U · L^−1
same,CREA,"Female, 20 mg/kg, d0",59 ± 4 µM
same,K,"Female, 20 mg/kg, d0",5.0 ± 0.3 mmol/L
same,Na,"Female, 20 mg/kg, d0",149.4 ± 3.5 mmol/L
same,BUN,"Female, 20 mg/kg, d14",5.4 ± 0.9 mmol/L
same,CHOL,"Female, 20 mg/kg, d14",2.8 ± 0.2 mmol/L
same,CPK,"Female, 20 mg/kg, d14",151.6 ± 45.2 U · L^−1
same,CREA,"Female, 20 mg/kg, d14",52.4 ± 3.8 µM
same,K,"Female, 20 mg/kg, d14",5.2 ± 0.2 mmol/L
same,Na,"Female, 20 mg/kg, d14",149.6 ± 1.7 mmol/L
same,BUN,"Female, 20 mg/kg, d26",6.3 ± 1.1 mmol/L
same,CHOL,"Female, 20 mg/kg, d26",2.7 ± 0.3 mmol/L
same,CPK,"Female, 20 mg/kg, d26",149.4 ± 58.7 U · L^−1
same,CREA,"Female, 20 mg/kg, d26",51.2 ± 3.6 µM
same,K,"Female, 20 mg/kg, d26",4.9 ± 0.5 mmol/L
same,Na,"Female, 20 mg/kg, d26",149.2 ± 4.3 mmol/L
same,BUN,"Female, 20 mg/kg, d 56",6.0 ± 0.6 mmol/L
same,CHOL,"Female, 20 mg/kg, d 56",3.0 ± 0.1 mmol/L
same,CPK,"Female, 20 mg/kg, d 56",129.0 ± 5.7 U · L^−1
same,CREA,"Female, 20 mg/kg, d 56",51.5 ± 4.9 µM
same,K,"Female, 20 mg/kg, d 56",5.0 ± 0.5 mmol/L
same,Na,"Female, 20 mg/kg, d 56",147.2 ± 4.2 mmol/L
same,BUN,"Female, 100 mg/kg, d0",5.9 ± 1.1 mmol/L
same,CHOL,"Female, 100 mg/kg, d0",3.8 ± 1.3 mmol/L
same,CPK,"Female, 100 mg/kg, d0",187.6 ± 75.0 U · L^−1
same,CREA,"Female, 100 mg/kg, d0",55.2 ± 4.7 µM
same,K,"Female, 100 mg/kg, d0",4.5 ± 0.4 mmol/L
same,Na,"Female, 100 mg/kg, d0",149.4 ± 1.9 mmol/L
same,BUN,"Female, 100 mg/kg, d14",6.4 ± 0.8 mmol/L
same,CHOL,"Female, 100 mg/kg, d14",2.9 ± 0.6 mmol/L
same,CPK,"Female, 100 mg/kg, d14",247.2 ± 89.5 U · L^−1
same,CREA,"Female, 100 mg/kg, d14",55.2 ± 3.8 µM
same,K,"Female, 100 mg/kg, d14",4.7 ± 0.5 mmol/L
same,Na,"Female, 100 mg/kg, d14",149.8 ± 3.7 mmol/L
same,BUN,"Female, 100 mg/kg, d26",6.4 ± 1.6 mmol/L
same,CHOL,"Female, 100 mg/kg, d26",3.1 ± 0.5 mmol/L
same,CPK,"Female, 100 mg/kg, d26",195.0 ± 96.8 U · L^−1
same,CREA,"Female, 100 mg/kg, d26",51.2 ± 3.6 µM
same,K,"Female, 100 mg/kg, d26",4.8 ± 0.6 mmol/L
same,Na,"Female, 100 mg/kg, d26",149.6 ± 3.8 mmol/L
same,BUN,"Female, 100 mg/kg, d 56",5.2 ± 0.2 mmol/L
same,CHOL,"Female, 100 mg/kg, d 56",3.6 ± 0.2 mmol/L
same,CPK,"Female, 100 mg/kg, d 56",112.0 ± 12.7 U · L^−1
same,CREA,"Female, 100 mg/kg, d 56",54.5 ± 4.9 µM
same,K,"Female, 100 mg/kg, d 56",4.2 ± 0.2 mmol/L
same,Na,"Female, 100 mg/kg, d 56",147.9 ± 1.3 mmol/L
same,BUN,"Female, 450 mg/kg, d0",6.1 ± 0.7 mmol/L
same,CHOL,"Female, 450 mg/kg, d0",3.3 ± 0.4 mmol/L
same,CPK,"Female, 450 mg/kg, d0",163.2 ± 56.2 U · L^−1
same,CREA,"Female, 450 mg/kg, d0",54.4 ± 7.1 µM
same,K,"Female, 450 mg/kg, d0",5.1 ± 0.5 mmol/L
same,Na,"Female, 450 mg/kg, d0",150.1 ± 2.2 mmol/L
same,BUN,"Female, 450 mg/kg, d14",14.3 ± 11.8 mmol/L
same,CHOL,"Female, 450 mg/kg, d14",2.4 ± 0.9 mmol/L
same,CPK,"Female, 450 mg/kg, d14",815.2 ± 1316.0 U · L^−1
same,CREA,"Female, 450 mg/kg, d14",162 ± 204 µM
same,K,"Female, 450 mg/kg, d14",5.5 ± 0.2 mmol/L
same,Na,"Female, 450 mg/kg, d14",144.6 ± 3.5 mmol/L
same,BUN,"Female, 450 mg/kg, d26",9.7 ± 1.0 mmol/L
same,CHOL,"Female, 450 mg/kg, d26",2.0 ± 0.7 mmol/L
same,CPK,"Female, 450 mg/kg, d26",328.5 ± 259.1 U · L^−1
same,CREA,"Female, 450 mg/kg, d26",64.3 ± 7.1 µM
same,K,"Female, 450 mg/kg, d26",5.3 ± 0.4 mmol/L
same,Na,"Female, 450 mg/kg, d26",145.0 ± 2.6 mmol/L
same,BUN,"Female, 450 mg/kg, d 56",5.6 ± 0.6 mmol/L
same,CHOL,"Female, 450 mg/kg, d 56",3.1 ± 0.3 mmol/L
same,CPK,"Female, 450 mg/kg, d 56",290.0 ± 176.8 U · L^−1
same,CREA,"Female, 450 mg/kg, d 56",57 ± 2.8 µM
same,K,"Female, 450 mg/kg, d 56",4.8 ± 0.2 mmol/L
same,Na,"Female, 450 mg/kg, d 56",145.7 ± 0.9 mmol/L
same,BUN,"Male, 20 mg/kg, d0",5.1 ± 0.9 mmol/L
same,CHOL,"Male, 20 mg/kg, d0",2.9 ± 0.5 mmol/L
same,CPK,"Male, 20 mg/kg, d0",156.6 ± 76.3 U · L^−1
same,CREA,"Male, 20 mg/kg, d0",64.2 ± 7.2 µM
same,K,"Male, 20 mg/kg, d0",5.1 ± 0.3 mmol/L
same,Na,"Male, 20 mg/kg, d0",148.7 ± 2.0 mmol/L
same,BUN,"Male, 20 mg/kg, d14",4.8 ± 0.5 mmol/L
same,CHOL,"Male, 20 mg/kg, d14",2.6 ± 0.4 mmol/L
same,CPK,"Male, 20 mg/kg, d14",128.2 ± 50.8 U · L^−1
same,CREA,"Male, 20 mg/kg, d14",65 ± 4.3 µM
same,K,"Male, 20 mg/kg, d14",4.6 ± 0.3 mmol/L
same,Na,"Male, 20 mg/kg, d14",148.7 ± 1.6 mmol/L
same,BUN,"Male, 20 mg/kg, d26",5.6 ± 0.3 mmol/L
same,CHOL,"Male, 20 mg/kg, d26",2.7 ± 0.5 mmol/L
same,CPK,"Male, 20 mg/kg, d26",154.4 ± 21.5 U · L^−1
same,CREA,"Male, 20 mg/kg, d26",64 ± 5.5 µM
same,K,"Male, 20 mg/kg, d26",5.4 ± 0.9 mmol/L
same,Na,"Male, 20 mg/kg, d26",147.9 ± 1.9 mmol/L
same,BUN,"Male, 20 mg/kg, d 56",5.2 ± 0.4 mmol/L
same,CHOL,"Male, 20 mg/kg, d 56",2.6 ± 0.1 mmol/L
same,CPK,"Male, 20 mg/kg, d 56",161.0 ± 87.7 U · L^−1
same,CREA,"Male, 20 mg/kg, d 56",64 ± 5.7 µM
same,K,"Male, 20 mg/kg, d 56",5.3 ± 1.1 mmol/L
same,Na,"Male, 20 mg/kg, d 56",144.6 ± 1.6 mmol/L
same,BUN,"Male, 100 mg/kg, d0",5.7 ± 0.5 mmol/L
same,CHOL,"Male, 100 mg/kg, d0",3.6 ± 0.4 mmol/L
same,CPK,"Male, 100 mg/kg, d0",161.4 ± 12.3 U · L^−1
same,CREA,"Male, 100 mg/kg, d0",66.6 ± 8.6 µM
same,K,"Male, 100 mg/kg, d0",4.8 ± 0.4 mmol/L
same,Na,"Male, 100 mg/kg, d0",149.1 ± 2.9 mmol/L
same,BUN,"Male, 100 mg/kg, d14",6.1 ± 1.5 mmol/L
same,CHOL,"Male, 100 mg/kg, d14",3.0 ± 0.6 mmol/L
same,CPK,"Male, 100 mg/kg, d14",213.4 ± 67.1 U · L^−1
same,CREA,"Male, 100 mg/kg, d14",63 ± 4.1 µM
same,K,"Male, 100 mg/kg, d14",4.8 ± 0.4 mmol/L
same,Na,"Male, 100 mg/kg, d14",148.3 ± 2.5 mmol/L
same,BUN,"Male, 100 mg/kg, d26",5.9 ± 1.0 mmol/L
same,CHOL,"Male, 100 mg/kg, d26",2.8 ± 0.3 mmol/L
same,CPK,"Male, 100 mg/kg, d26",179.8 ± 42.1 U · L^−1
same,CREA,"Male, 100 mg/kg, d26",63 ± 8.5 µM
same,K,"Male, 100 mg/kg, d26",5.2 ± 0.2 mmol/L
same,Na,"Male, 100 mg/kg, d26",147.1 ± 2.4 mmol/L
same,BUN,"Male, 100 mg/kg, d 56",5.7 ± 1.5 mmol/L
same,CHOL,"Male, 100 mg/kg, d 56",2.8 ± 0.6 mmol/L
same,CPK,"Male, 100 mg/kg, d 56",109.0 ± 9.9 U · L^−1
same,CREA,"Male, 100 mg/kg, d 56",58.5 ± 3.5 µM
same,K,"Male, 100 mg/kg, d 56",4.2 ± 0.0 mmol/L
same,Na,"Male, 100 mg/kg, d 56",146.5 ± 0.7 mmol/L
same,BUN,"Male, 450 mg/kg, d0",5.3 ± 0.6 mmol/L
same,CHOL,"Male, 450 mg/kg, d0",3.4 ± 0.5 mmol/L
same,CPK,"Male, 450 mg/kg, d0",140.4 ± 44.6 U · L^−1
same,CREA,"Male, 450 mg/kg, d0",68.6 ± 5.1 µM
same,K,"Male, 450 mg/kg, d0",5.2 ± 0.8 mmol/L
same,Na,"Male, 450 mg/kg, d0",148.4 ± 2.5 mmol/L
same,BUN,"Male, 450 mg/kg, d14",11.3 ± 6.7 mmol/L
same,CHOL,"Male, 450 mg/kg, d14",1.8 ± 0.3 mmol/L
same,CPK,"Male, 450 mg/kg, d14",290.2 ± 120.0 U · L^−1
same,CREA,"Male, 450 mg/kg, d14",116 ± 74.4 µM
same,K,"Male, 450 mg/kg, d14",5.0 ± 0.2 mmol/L
same,Na,"Male, 450 mg/kg, d14",146.4 ± 3.3 mmol/L
same,BUN,"Male, 450 mg/kg, d26",10.4 ± 3.1 mmol/L
same,CHOL,"Male, 450 mg/kg, d26",1.7 ± 0.3 mmol/L
same,CPK,"Male, 450 mg/kg, d26",133.6 ± 44.6 U · L^−1
same,CREA,"Male, 450 mg/kg, d26",79 ± 2.8 µM
same,K,"Male, 450 mg/kg, d26",5.2 ± 0.2 mmol/L
same,Na,"Male, 450 mg/kg, d26",144.3 ± 2.2 mmol/L
same,BUN,"Male, 450 mg/kg, d 56",5.1 ± 0.0 mmol/L
same,CHOL,"Male, 450 mg/kg, d 56",2.8 ± 0.3 mmol/L
same,CPK,"Male, 450 mg/kg, d 56",99.5 ± 7.8 U · L^−1
same,CREA,"Male, 450 mg/kg, d 56",66.5 ± 3.5 µM
same,K,"Male, 450 mg/kg, d 56",4.8 ± 0.8 mmol/L
same,Na,"Male, 450 mg/kg, d 56",145.3 ± 1.1 mmol/L
same,CREA,"high-dose female that died early on d23, d14 data",526 µM
same,CHOL,high-dose males,significantly decreased
same,Serum Na level,"high-dose males, d26, statistically significant",decreased slightly
same,BUN,"high-dose, both sexes",significantly increased
same,CPK,"high-dose, both sexes",significantly increased
same,CREA,"high-dose, both sexes",significantly increased
